Results published in patent US8993543B2, “Diphenyl sulfide derivative and pharmaceutical product which contains same as active ingredient” (Kyorin Pharmaceutical Co., Ltd., priority 2010, dated 2015).

Experiments:
Human S1P3 receptor = molecular target: T1, Human S1P3 receptor (Homo sapiens, UniProt Q99500); test: Suppression of S1P-induced cellular calcium mobilization in human S1P3 receptor-expression CHO cells (Schild plot, Kd); type: cell-based; conditions: Fluo3 calcium mobilization by S1P, Schild plot analysis, read-out: S1P3 dissociation constant Kd
T1 construct: expressed in transfected cells; host or cells: CHO cells (Geneticin selection)
T1 sequence (Q99500 whole entry): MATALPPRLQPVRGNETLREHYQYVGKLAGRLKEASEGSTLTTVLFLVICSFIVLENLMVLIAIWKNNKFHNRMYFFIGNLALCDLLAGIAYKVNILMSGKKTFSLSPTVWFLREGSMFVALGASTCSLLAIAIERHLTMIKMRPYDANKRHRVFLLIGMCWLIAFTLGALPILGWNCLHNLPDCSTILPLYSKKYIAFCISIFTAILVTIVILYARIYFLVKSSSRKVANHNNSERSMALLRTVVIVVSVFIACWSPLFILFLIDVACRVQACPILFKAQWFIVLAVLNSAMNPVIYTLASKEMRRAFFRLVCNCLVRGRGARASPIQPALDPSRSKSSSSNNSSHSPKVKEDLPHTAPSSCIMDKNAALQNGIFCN
Procedure: Suppression Effect of Test Compound Against Cellular Calcium Mobilization of Human S1P3 Receptor-Expression Cell by S1P (Sphingosine 1-Phosphoric Acid)
Human S1P3 receptor-expression CHO cells were subcultured in a Ham's F-12 culture medium containing 10% fetal bovine serum, and 300 μg/mL of Geneticin The human S1P3 receptor-expression CHO cells were subjected to 0.25% trypsinization, then recovered from the dish, and floated in a Ham's F-12 culture medium containing 10% fetal bovine serum, and 300 μg/mL of Geneticin. Then, the human S1P3 receptor-expression CHO cells were seeded into a 96-well black clear bottom plate (BD Falcon Biocoat) at 2.5×10^4/100 μL/well. The human S1P3 receptor-expression CHO cells were then cultivated for […] at 37° C. under 5% CO2 environment. The next day, the wells were washed with a Ham's F-12 culture medium containing 100 μL of 0.1% fatty acid-free bovine serum albumin (BSA). This washing treatment was carried out 3 times. The culture medium was exchanged with a Ham's F-12 culture medium containing 0.1% BSA, and then starved of serum for 6 hours in a CO2 incubator set at 37° C.
The culture medium was thrown away after the 6 hours. Then, 50 μL/well of a Fluo3 loading buffer was added, and the cultures were cultivated for further 1 hour. The Fluo3 loading buffer was prepared as follows. First, equal amounts of Fluo3-AM (Dojindo) and pluronic F-127 (20% DMSO solution, invitrogen) weremixed. Then, the mixture of Fluo3-AM andpluronic F-127 was added into a Hanks-HEPES buffer (Hanks balanced salt solution containing 20 mM HEPES (pH 7.4), 0.1% BSA (fatty acid-free), and 2.5 mM probenecid) to form a Fluo3 loading buffer having a final Fluo3-AM concentration of 4 μM.
After incubating for 1 hour, the wells were washed 3 times with 100 μL of the Hanks-HEPES buffer. 100 μL of the same buffer in which a test compound (0.125 nM, 1.25 nM, 12.5 nM, 125 nM, 1.25 μM) or DMSO had been dissolved were added to the each well, and then incubated for 30 minutes at 37° C. in a microplate spectrophotofluorometer (FLEX Station (Molecular Device Co., Ltd.)). Then, 25 μL of S1P prepared at 5 times the concentration of the final concentration based on serial dilution (final concentration of 0.1 nM, 1 nM, 10 nM, 100 nM, and 1 μM) was added, and the fluorescence based on the Fluo3 due to calcium mobilization was detected and measured at an excitation wavelength of 485 nm and a detection wavelength of 525 nm using an same apparatus. Based on the measurement data, the increase in fluorescence was calculated by subtracting the minimum fluorescence intensity from the maximum fluorescence intensity. The calculated increase in fluorescence was used to perform a curve approximation of the relationship between the S1P concentration and the increase in fluorescence using PRISM 4 software (GraphPad). Based on the results, the EC50 value of the compound-untreated and the EC50 value of the compound-treated at each concentration was calculated. Based on these values, Schild plot analysis was carried out in order to determine the dissociation constant Kd. In Table 1, 1 nmol/L>Kd value≧0.1 nmol/L is indicated as “+”, 0.1 nmol/L>Kd value≧0.01 nmol/L is indicated as “++”, and 0.01 nmol/L>Kd value is indicated as “+++”.

[1] = tested on: Cecal ligation and puncture (CLP) sepsis; test: Cecal ligation and puncture sepsis model, survival; type: in vivo, Wistar rats; conditions: CLP rats
Procedure: Cecal Ligation and Puncture Sepsis Model
This model is widely used as a model for polymicrobial abdominal sepsis caused by leakage of intestinal bacteria. The experiment was carried out with reference to the method described in Non-Patent Literature 9 (D. Rittirsch et al., Nature Protocols, 4, 31 (2009)).
Preparation of Cecalligation and Puncture (CLP) Sepsis Mice
Wistar rats (Charles River Laboratories, Japan Inc., male 8 W) were used. The abdominal portion of the rats was cut open under isoflurane anesthesia, and the appendix was exteriorized. The appendix was ligated with sterilized silk thread, and 10 holes were opened in the tip portion of the appendix using an 18 G syringe needle. After the treatment, the appendix was returned to the body, and the wound was sutured. Further, physiological saline was subcutaneously administered at a dose of 30 mL/kg. The rats were then returned to their cages, and observed for 7 days to determine the survival rate.
Test Compound Administration Method
The test compound was continuously administered via a cannula stuck in the femoral vein at a dose of 0.1 mg/kg/hr. Administration of the test compound was started 1 hour after the CLP procedure was finished.

S1P1 receptor [2] = molecular target: T2, S1P1 receptor (Homo sapiens, UniProt P21453); test: Antagonistic action on the S1P1 receptor by the method of Experiment Example 1 (Kd); type: cell-based; set-up: expressed in transfected cells
T2 sequence (P21453 whole entry): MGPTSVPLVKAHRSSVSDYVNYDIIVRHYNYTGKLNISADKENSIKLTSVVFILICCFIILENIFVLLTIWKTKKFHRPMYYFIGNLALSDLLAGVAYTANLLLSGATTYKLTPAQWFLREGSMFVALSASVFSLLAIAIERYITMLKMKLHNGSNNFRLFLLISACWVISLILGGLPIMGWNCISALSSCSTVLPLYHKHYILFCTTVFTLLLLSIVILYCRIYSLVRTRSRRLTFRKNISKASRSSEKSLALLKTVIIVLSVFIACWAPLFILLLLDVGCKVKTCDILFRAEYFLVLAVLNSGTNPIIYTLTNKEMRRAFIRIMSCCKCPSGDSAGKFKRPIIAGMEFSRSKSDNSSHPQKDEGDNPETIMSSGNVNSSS

S1P1 receptor [3] = molecular target: T2, S1P1 receptor; test: Intracellular calcium mobilization derivative test (agonist action) in human S1P1 receptor-expression CHO cells; type: cell-based; set-up: expressed in transfected cells; host or cells: CHO cells (Geneticin selection); conditions: agonist mode, up to 10 μM
Procedure: Intracellular Calcium Mobilization Derivative Test of Test Compound Against Human S1P1 Receptor-Expression Cell
Human S1P1 receptor-expression CHO cells were subcultured in a Ham's F-12 culture medium containing 10% fetal bovine serum, and 300 μg/mL of Geneticin. The human S1P1 receptor-expression CHO cells were subjected to 0.25% trypsinization, then recovered from the dish, and floated in a Ham's F-12 culture medium containing 10% fetal bovine serum, and 300 μg/mL of Geneticin. Then, the human S1P1 receptor-expression CHO cells were seeded into a 96-well black clear bottom plate (BD Falcon Biocoat) at 2.5×10^4/100 μL/well. […]
After incubating for 1 hour, the wells were washed 3 times with 100 μL of the Hanks-HEPES buffer. […] Then, 25 μL of the same buffer dissolved with DMSO, or S1P prepared at 5 times the concentration of the final concentration based on serial dilution or the test compound (final concentration of 0.1 nM, 1 nM, 10 nM, 100 nM, 1 μM, and 10 μM) was added, and the fluorescence based on the Fluo3 due to calcium mobilization was detected and measured at an excitation wavelength of 485 nm and a detection wavelength of 525 nm using the same apparatus. Based on the measurement data, the increase in fluorescence was calculated by subtracting the minimum fluorescence intensity from the maximum fluorescence intensity. […]

| SMILES | Kd (Human S1P3 receptor) | survival lengthening action, Log-rank test p ([1]; 0.1 mg/kg/hr continuous via femoral vein from 1 hour after CLP, vs medium administration group) | survival rate, test subjects alive after 3 days ([1]; 0.1 mg/kg/hr continuous via femoral vein, after 3 days) | survival rate, test subjects alive after 7 days ([1]; 0.1 mg/kg/hr continuous via femoral vein, after 7 days) | Kd (S1P1 receptor [2]) | EC50 (S1P1 receptor [3]) |
| --- | --- | --- | --- | --- | --- | --- |
| CCC[C@](N)(CCc1ccc(Sc2cc(OCC)ccc2O)cc1Cl)COP(=O)(O)O [Example 2, (S)-2-amino-4-{2-chloro-4-(5-ethoxy-2-hydroxyphenylthio)phenyl}-2-propylbutylphosphoric acid monoester] | < 0.01 nM | < 0.01 | 25% | 12.5% | 1.6 nM | > 10000 nM |
| CCC[C@](N)(CCc1ccc(Sc2cc(C(C)=O)ccc2O)cc1Cl)COP(=O)(O)O [compound 36, (S)-4-[4-(5-acetyl-2-hydroxyphenylthio)-2-chlorophenyl]-2-amin o-2-propylbutylphosphoric acid monoester] | 0.1 to 1 nM |  |  |  |  |  |
| CCC[C@](N)(CCc1ccc(Sc2cc(C#N)ccc2O)cc1Cl)COP(=O)(O)O [compound 35, (S)-2-amino-4-[2-chloro-4-(5-cyano-2-hydroxyphenylthio)Phenyl]-2-propylbutylphosphoric acid monoester] | 0.1 to 1 nM |  |  |  |  |  |
| N[C@@](CCCO)(CCc1ccc(Sc2cc(C3CC3)ccc2O)cc1Cl)COP(=O)(O)O [compound 19] | 0.1 to 1 nM |  |  |  |  |  |
| C=CC[C@](N)(CCc1ccc(Sc2cc(OCC)ccc2O)cc1Cl)COP(=O)(O)O [Example 1, (R)-2-allyl-2-amino-4-{2-chloro-4-(5-ethoxy-2-hydroxyphenylthio)phenyl}butylphosphoric acid monoester] | < 0.01 nM |  |  |  | 2.66 nM | > 10000 nM |
| C=CC[C@](N)(CCc1ccc(Sc2cc(C#N)ccc2O)cc1Cl)COP(=O)(O)O [compound 28, (R)-2-allyl-2-amino-4-{2-chloro-4-(5-cyano-2-hydroxyphenylthio)phenyl}butylphosphoric acid monoester] | 0.1 to 1 nM |  |  |  |  |  |
